Measured values published in the NIST ThermoML archive (doi:10.1016/j.jct.2019.03.035).
± gives the expanded uncertainty stated by the source.

Columns and labels:
[1] = refractive index (other wavelength) (dimensionless); conditions: 100 kPa, Liquid, Wavelength=632.8 nm, minimum deviation angle technique
[2] = refractive index (other wavelength) (dimensionless); xn = mol fraction of the nth substance listed; conditions: 288.62 K; 100 kPa; Liquid; Wavelength=632.8 nm; minimum deviation angle technique; x2 = 0

Row | refractive index ([1]; 285.47 K) | refractive index ([1]; 286.4 K) | refractive index ([1]; 287.49 K) | refractive index ([1]; 288.44 K) | refractive index ([1]; 288.62 K) | refractive index ([1]; 289.45 K) | refractive index ([1]; 290.7 K) | refractive index ([1]; 291.77 K) | refractive index ([1]; 292.66 K) | refractive index ([1]; 293.89 K) | refractive index ([1]; 285.51 K) | refractive index ([1]; 286.56 K) | refractive index ([1]; 287.57 K) | refractive index ([1]; 288.6 K) | refractive index ([1]; 289.75 K) | refractive index ([1]; 290.67 K) | refractive index ([1]; 291.68 K) | refractive index ([1]; 292.74 K) | refractive index ([1]; 293.98 K) | refractive index [2] | Compound
1 | 1.5293 ± 0.0003 | 1.5288 ± 0.0003 | 1.5283 ± 0.0003 | 1.5278 ± 0.0003 | 1.5277 ± 0.0003 | 1.5274 ± 0.0003 | 1.5268 ± 0.0003 | 1.5262 ± 0.0003 | 1.5258 ± 0.0003 | 1.5252 ± 0.0003 |  |  |  |  |  |  |  |  |  |  | N#Cc1ccccc1 [benzonitrile]
2 |  |  |  |  | 1.4128 ± 0.0003 |  |  |  |  |  | 1.4142 ± 0.0003 | 1.4137 ± 0.0003 | 1.4133 ± 0.0003 | 1.4128 ± 0.0003 | 1.4123 ± 0.0003 | 1.4119 ± 0.0003 | 1.4114 ± 0.0003 | 1.411 ± 0.0003 | 1.4104 ± 0.0003 |  | CCCCCCCCCC [decane]
3 |  |  |  |  |  |  |  |  |  |  |  |  |  |  |  |  |  |  |  | 1.4128 ± 0.0003 | CCCCCCCCCC [decane] + N#Cc1ccccc1
